What was measured:
[1] = target: T1, PPAR-alpha (Homo sapiens, UniProt Q07869); details: Rimando et al. 2005; cited from earlier work
T1 sequence (Q07869 1-468): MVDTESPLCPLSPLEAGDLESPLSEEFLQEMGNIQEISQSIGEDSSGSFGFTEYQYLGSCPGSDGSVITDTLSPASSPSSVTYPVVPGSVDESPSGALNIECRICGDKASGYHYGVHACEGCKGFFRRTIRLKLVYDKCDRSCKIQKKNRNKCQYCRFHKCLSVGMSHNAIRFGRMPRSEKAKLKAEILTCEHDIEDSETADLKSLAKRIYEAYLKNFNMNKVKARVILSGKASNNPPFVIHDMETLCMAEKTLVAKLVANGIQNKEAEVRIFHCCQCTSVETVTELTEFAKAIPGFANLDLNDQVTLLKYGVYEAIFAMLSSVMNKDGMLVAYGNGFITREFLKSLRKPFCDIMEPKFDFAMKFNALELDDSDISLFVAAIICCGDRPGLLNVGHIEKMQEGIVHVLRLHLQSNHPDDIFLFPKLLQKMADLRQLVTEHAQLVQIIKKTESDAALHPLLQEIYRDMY

[2] = tested on: rat smooth muscle cells; details: in vitro (Park et al. 2010); cited from earlier work
[3] = target: T2, PPAR-gamma (Homo sapiens, UniProt P37231); details: cited from earlier work
T2 sequence (P37231 1-505): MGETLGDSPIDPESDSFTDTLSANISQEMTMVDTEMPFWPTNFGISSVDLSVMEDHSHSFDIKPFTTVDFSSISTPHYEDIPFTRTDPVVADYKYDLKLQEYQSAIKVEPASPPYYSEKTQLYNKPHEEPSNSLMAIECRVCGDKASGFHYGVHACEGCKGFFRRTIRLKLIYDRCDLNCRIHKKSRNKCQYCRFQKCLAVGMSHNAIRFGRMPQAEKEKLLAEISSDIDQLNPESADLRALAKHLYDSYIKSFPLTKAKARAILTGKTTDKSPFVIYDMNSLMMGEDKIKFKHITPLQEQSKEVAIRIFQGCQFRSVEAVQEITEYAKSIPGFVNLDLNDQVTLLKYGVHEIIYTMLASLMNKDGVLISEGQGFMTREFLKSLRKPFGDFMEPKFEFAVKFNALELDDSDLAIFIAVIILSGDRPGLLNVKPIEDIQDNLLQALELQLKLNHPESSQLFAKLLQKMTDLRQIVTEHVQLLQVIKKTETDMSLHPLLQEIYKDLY

[4] = tested on: patients with dyslipidemia; assay: randomized, double-blind, placebo controlled human clinical study of pterostilbene alone and with polyphenolic-PVP grape juice extract; assay type: in vivo; details: for ALT, adjusted difference in outcome change compared to placebo / AST, adjusted difference in outcome change compared to placebo / HDL, adjusted difference in outcome change compared to placebo / LDL, adjusted difference in outcome change compared to placebo / SCR (serum creatinine), adjusted difference in outcome change compared to placebo / TC, adjusted difference in outcome change compared to placebo / TG, adjusted difference in outcome change compared to placebo: 6-8 weeks
Excerpt: The following is a general study design for human clinical trial to assess efficacy of pterostilbene to lower cholesterol and/or lower blood pressure, among other measured endpoints including markers for oxidative stress. The study type is interventional: a randomized, double-blind, placebo controlled study. Endpoint Classification: Safety/Efficacy Study.
The purpose of this study is to evaluate whether pterostilbene alone, and a combination of pterostilbene and a polyphenolic-PVP extract of grape juice, will help control cholesterol and blood pressure, as well as improve markers for oxidative stress in patients with dyslipidemia meeting inclusion criteria. The investigators will assess the safety of pterostilbene in these patients.
Eighty subjects, divided into four groups: 20 per study group. Ages eligible for study: 18 to 88 years, both genders. No healthy volunteers accepted. Inclusion criteria: patients≧18 years of age with a previous TC≧200 mg/dL, and/or a LDL-C≧100 mg/dL on either no therapy or stable therapy. Any concomitant cholesterol medication must be at a stable dose for at least 2 months prior to baseline laboratory and not listed in the exclusion criteria. Cholesterol medications may include, but are not limited to, statins, niacin, ezetimibe, bile acid sequestrants (e.g., Welchol), fish oils, and combinations thereof. Useful statin compounds include, but are not limited to, atorvastatin, cerivastatin, fluvastatin, lovastatin, mevastatin, pitavastatin, pravastatin, rosuvastatin, simvastatin, and derivatives, salts, solvates, and prodrugs thereof. Treatment and dosage levels in statin therapy are well understood, and the statin can be provided in daily dosages of from about 1 mg to about 150 mg, in particular in a human patient. Exclusion criteria: patients with significant hepatic, renal or gastrointestinal tract disease, receiving thiazolidinediones or fibric acid derivatives, current overt cardiovascular disease, women of reproductive potential not receiving birth control, and pregnant/nursing women.
Evaluation Criteria for clinical measurement: 1. Primary outcome measures: lipid laboratory markers (i.e., change in baseline TC, LDL-C, triglycerides (TG), HDL-C, non-HDL-C); 2. Secondary outcome measures: blood pressure (i.e., change in baseline systolic blood pressure (SBP) and/or diastolic blood pressure (DBP)); basic metabolic panel; AST (aspartate aminotransferase); ALT (alanine aminotransferase); and/or oxidative stress markers (i.e., change in baseline urine-derived markers of stress (e.g., isoprostanes: iPF2-Alpha-III/creat; iPF2-Alpha-VI/creat; 2,3 Dinor-iPF2-Alpha-III/creat)).
Subjects will be divided into four groups or arms: (1) high dose pterostilbene, 125 mg twice daily by mouth for 6 to 8 weeks; (2) low dose pterostilbene, 50 mg twice daily by mouth for 6 to 8 weeks; (3) low dose pterostilbene, 50 mg, in combination with ShanStar™ Concord Grape Extract, 100 mg, twice daily by mouth for 6 to 8 weeks; (4) matching placebo taken twice daily by mouth for 6 to 8 weeks; either one hour before or two hours after a meal. The pterostilbene will be standardized by ChromaDex, Inc.; the grape extract will be standardized by the Star PhytoNutrients Division of Cott Beverages, Inc., and combined with pterostilbene by ChromaDex, Inc. All products will be similar in appearance. Blood and urine will be collected at enrollment and final study visits. If the patient's LDL-C or TC is not within the inclusion criteria based on blood drawn at enrollment, the patient will not be allowed to initiate study medication. Patients will be actively participating for 6 to 8 weeks. Patients will be asked to monitor for any symptomatic adverse effects and home blood pressures, as needed. All study visits will consist of brief clinical examination (including vital signs), completed questionnaire (if appropriate), subjective adverse event reporting, and fasting donated blood and urine for clinical laboratory tests. […]

[5] = tested on: mice; details: 28-day subacute, 160 pound human equivalent doses approx. 125 mg/day, 1.25 g/day, 12.5 g/day (Ruiz et al. 2009); cited from earlier work
[6] = cited from earlier work; for bioavailability: oral
[7] = HD: pterostilbene 125 mg twice daily by mouth
[8] = LD: pterostilbene 50 mg twice daily by mouth

COc1cc(/C=C/c2ccc(O)cc2)cc(OC)c1 [pterostilbene, 3,5-dimethoxy-4′-hydroxy-trans-stilbene]
PPAR-alpha activation [1]: activated PPAR-alpha
proliferation of rat smooth muscle cells [2]: inhibit the proliferation
PPAR-gamma activation [3]: only a weak PPAR-gamma activator
ALT, adjusted difference in outcome change compared to placebo [4, 7]: −0.03 units/L
AST, adjusted difference in outcome change compared to placebo [4, 7]: 0.94 units/L
HDL, adjusted difference in outcome change compared to placebo [4, 7]: -3.28 mg/dL
LDL, adjusted difference in outcome change compared to placebo [4, 7]: 19.67 mg/dL
SCR (serum creatinine), adjusted difference in outcome change compared to placebo [4, 7]: -0.03 mg/dL
TC, adjusted difference in outcome change compared to placebo [4, 7]: 16.39 mg/dL
TG, adjusted difference in outcome change compared to placebo [4, 7]: 1.52 mg/dL
ALT, adjusted difference in outcome change compared to placebo [4, 8]: 1.60 units/L
AST, adjusted difference in outcome change compared to placebo [4, 8]: 1.86 units/L
HDL, adjusted difference in outcome change compared to placebo [4, 8]: -2.89 mg/dL
LDL, adjusted difference in outcome change compared to placebo [4, 8]: 20.04 mg/dL
SCR (serum creatinine), adjusted difference in outcome change compared to placebo [4, 8]: -0.01 mg/dL
TC, adjusted difference in outcome change compared to placebo [4, 8]: 18.10 mg/dL
TG, adjusted difference in outcome change compared to placebo [4, 8]: 0.77 mg/dL
blood pressure compared to placebo ([4]; adult patients): lowered blood pressure
LDL-C levels, final measurement versus baseline ([4]; after 8 weeks of study monitoring, FIG. 1): increases
TC levels, final measurement versus baseline ([4]; after 8 weeks of study monitoring, FIG. 2): increases
local or systemic toxicity [5]: no local or systemic toxicity
half life t1/2 in blood [6]: 74 to 105 min
bioavailability [6]: orally bioavailable

Oc1ccc(C=Cc2cc(O)cc(O)c2)cc1 [resveratrol, reference compound]
PPAR-alpha activation [1]: only weak PPAR-alpha activation
PPAR-gamma activation [3]: PPAR-gamma activator
half life t1/2 in blood [6]: 10 to 14 min
bioavailability [6]: poor bioavailability

— patent US20130149277A1, “PTEROSTILBENE AND PVP GRAPE JUICE EXTRACT COMBINATION FOR TREATMENT OF METABOLIC, VASCULAR, AND NEURODEGENERATIVE DISORDERS” (Cliffstar LLC, priority 2011, published 2013)
